From patent US20230107642A1 (Erasca, Inc., priority 2020, published 2023)

Biological target: T1, Cys12 of the KRAS 4B G12C protein (Homo sapiens, UniProt P01116, G12C)
T1 construct: This protein contained 188 amino acids in total, including an N-terminal 6-Histidine tag; made in house; host or cells: E. coli BL21
Assay: In vitro covalent adduct formation (CAF) assay, LC-MS intact mass
Type: binding
Settings: 10 uM compound, 60 min
How it was run: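 Percent covalent modification from intact-mass LC-MS, by relative free versus adducted protein (adducts within 1 Da of expected mass). Reaction: 10 μM compound with 5 μM E. coli-expressed, GDP-exchanged KRAS 4B G12C in TBS pH 7.4, 4% DMSO, 1 h at 22° C.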

SMILES	% CAF 10 uM @ 60 min [%]
C=CC(=O)N1[C@H](C)CN(c2nc(=O)n3c4c(c(-c5ccc(F)cc5)c(C(F)(F)F)cc24)SCC(COC)(COC)C3)C[C@@H]1C [Example 1409, 8-((3S,5R)-4-acryloyl-3,5-dimethylpiperazin-1-yl)-11-(4-fluorophenyl)-3,3-bis(methoxymethyl)-10-(trifluoromethyl)-3,4-dihydro-[1,4]thiazepino[2,3,4-ij]quinazolin-6(2H)-one]	96.5
C=CC(=O)N1[C@H](C)CN(c2nc(=O)n3c4c(c(-c5cc(Cl)c(F)cc5F)c(C(F)(F)F)cc24)SCC(COC)(COC)C3)C[C@@H]1C [Example 1410, 8-((3S,5R)-4-acryloyl-3,5-dimethylpiperazin-1-yl)-11-(5-chloro-2,4-difluorophenyl)-3,3-bis(methoxymethyl)-10-(trifluoromethyl)-3,4-dihydro-2H,6H-[1,4]thiazepino[2,3,4-ij]quinazolin-6-one]	95.3
[2H]C([2H])([2H])OC[C@H]1CSc2c(-c3ccc(F)cc3)c(C(F)(F)F)cc3c(N4C[C@@H](C)N(C(=O)C=C)[C@@H](C)C4)nc(=O)n1c23 [Example 1413, (S)-7-((3S,5R)-4-acryloyl-3,5-dimethylpiperazin-1-yl)-10-(4-fluorophenyl)-3-((methoxy-d3)methyl)-9-(trifluoromethyl)-2,3-dihydro-5H-[1,4]thiazino[2,3,4-ij]quinazolin-5-one]	95.1
C=CC(=O)N1[C@H](C)CN(c2nc(=O)n3c4c(c(-c5ccc(F)cc5F)c(C(F)(F)F)cc24)SC[C@@H]3COCC)C[C@@H]1C [Example 1414, (3S)-7-((3S,5R)-4-acryloyl-3,5-dimethylpiperazin-1-yl)-10-(2,4-difluorophenyl)-3-(ethoxymethyl)-9-(trifluoromethyl)-2,3-dihydro-5H-[1,4]thiazino[2,3,4-ij]quinazolin-5-one]	91.8
C=CC(=O)N1[C@H](C)CN(c2nc(=O)n3c4c(c(-c5ccc(F)cc5)c(C(F)(F)F)cc24)SC[C@@H]3COCC)C[C@@H]1C [Example 1415, (S)-7-((3S,5R)-4-acryloyl-3,5-dimethylpiperazin-1-yl)-3-(ethoxymethyl)-10-(4-fluorophenyl)-9-(trifluoromethyl)-2,3-dihydro-5H-[1,4]thiazino[2,3,4-ij]quinazolin-5-one]	90.1
[2H]C([2H])([2H])OC[C@H]1CSc2c(-c3cc(Cl)c(F)cc3F)c(C(F)(F)F)cc3c(N4C[C@@H](C)N(C(=O)C=C)[C@@H](C)C4)nc(=O)n1c23 [Example 1417, (3S)-7-((3S,5R)-4-acryloyl-3,5-dimethylpiperazin-1-yl)-10-(5-chloro-2,4-difluorophenyl)-3-((methoxy-d3)methyl)-9-(trifluoromethyl)-2,3-dihydro-5H-[1,4]thiazino[2,3,4-ij]quinazolin-5-one]	92.5
[2H]C([2H])([2H])OC[C@H]1CSc2c(-c3ccc(F)cc3F)c(C(F)(F)F)cc3c(N4C[C@@H](C)N(C(=O)C=C)[C@@H](C)C4)nc(=O)n1c23 [Example 1418, (3S)-7-((3S,5R)-4-acryloyl-3,5-dimethylpiperazin-1-yl)-10-(2,4-difluorophenyl)-3-((methoxy-d3)methyl)-9-(trifluoromethyl)-2,3-dihydro-5H-[1,4]thiazino[2,3,4-ij]quinazolin-5-one]	95.4
C=CC(=O)N1[C@H](C)CN(c2nc(=O)n3c4c(c(-c5ccc(F)cc5)c(C(F)(F)F)cc24)SC[C@@H]3C)C[C@@H]1C [Example 1419, (S)-7-((3S,5R)-4-acryloyl-3,5-dimethylpiperazin-1-yl)-10-(4-fluorophenyl)-3-methyl-9-(trifluoromethyl)-2H-[1,4]thiazino[2,3,4-ij]quinazolin-5(3H)-one]	95.7
C=CC(=O)N1[C@H](C)CN(c2nc(=O)n3c4c(c(-c5cc(Cl)c(F)cc5F)c(C(F)(F)F)cc24)SC[C@@H](N2CCCC2)C3)C[C@@H]1C [Example 1422, (3S)-8-((3S,5R)-4-acryloyl-3,5-dimethylpiperazin-1-yl)-11-(5-chloro-2,4-difluorophenyl)-3-(pyrrolidin-1-yl)-10-(trifluoromethyl)-3,4-dihydro-2H,6H-[1,4]thiazepino[2,3,4-ij]quinazolin-6-one]	94.1
C=CC(=O)N1C[C@H](C)N(c2nc(=O)n3c4c(c(-c5cc(C=O)c(F)cc5F)c(C(F)(F)F)cc24)SCC2(COC2)C3)C[C@H]1C [Example 1425, 5-(8′-((2S,5R)-4-acryloyl-2,5-dimethylpiperazin-1-yl)-6′-oxo-10′-(trifluoromethyl)-2′H,4′H,6′H-spiro[oxetane-3,3′-[1,4]thiazepino[2,3,4-ij]quinazolin]-11′-yl)-2,4-difluorobenzaldehyde]	69.2
C=CC(=O)N1C[C@H](C)N(c2nc(=O)n3c4c(c(-c5cc(C(OC)OC)c(F)cc5F)c(C(F)(F)F)cc24)SCC2(COC2)C3)C[C@H]1C [Example 1426, 8′-((2S,5R)-4-acryloyl-2,5-dimethylpiperazin-1-yl)-11′-(5-(dimethoxymethyl)-2,4-difluorophenyl)-10′-(trifluoromethyl)-2′H,4′H,6′H-spiro[oxetane-3,3′-[1,4]thiazepino[2,3,4-ij]quinazolin]-6′-one]	76
C=CC(=O)N1[C@H](C)CN(c2nc(=O)n3c4c(c(-c5ccc(F)cc5F)c(C(F)(F)F)cc24)SC[C@@H]3C)C[C@@H]1C [Example 1427, (3S)-7-((3S,5R)-4-acryloyl-3,5-dimethylpiperazin-1-yl)-10-(2,4-difluorophenyl)-3-methyl-9-(trifluoromethyl)-2,3-dihydro-5H-[1,4]thiazino[2,3,4-ij]quinazolin-5-one]	95
C=CC(=O)N1[C@H](C)CN(c2nc(=O)n3c4c(c(-c5ccc(F)cc5)c(C(F)(F)F)cc24)SCC(CO)(CO)C3)C[C@@H]1C [Example 1430, 8-((3S,5R)-4-acryloyl-3,5-dimethylpiperazin-1-yl)-11-(4-fluorophenyl)-3,3-bis(hydroxymethyl)-10-(trifluoromethyl)-3,4-dihydro-2H,6H-[1,4]thiazepino[2,3,4-ij]quinazolin-6-one]	93
C=CC(=O)N1C[C@H](C)N(c2nc(=O)n3c4c(c(-c5cc(Cl)c(F)cc5F)c(C(F)(F)F)cc24)SCC2(CCOCC2)C3)C[C@H]1C [Example 1435, 8′-((2S,5R)-4-acryloyl-2,5-dimethylpiperazin-1-yl)-11′-(5-chloro-2,4-difluorophenyl)-10′-(trifluoromethyl)-2,3,5,6-tetrahydro-2′H,4′H,6′H-spiro[pyran-4,3′-[1,4]thiazepino[2,3,4-ij]quinazolin]-6′-one]	84
C=CC(=O)N1C[C@H](C)N(c2nc(=O)n3c4c(c(-c5cc(Br)c(F)cc5F)c(C(F)(F)F)cc24)SCC2(COC2)C3)C[C@H]1C [Example 1436, 8′-((2S,5R)-4-acryloyl-2,5-dimethylpiperazin-1-yl)-11′-(5-bromo-2,4-difluorophenyl)-10′-(trifluoromethyl)-2′H,4′H,6′H-spiro[oxetane-3,3′-[1,4]thiazepino[2,3,4-ij]quinazolin]-6′-one]	81
C=CC(=O)N1[C@H](C)CN(c2nc(=O)n3c4c(c(-c5cc(Cl)c(F)cc5F)c(C(F)(F)F)cc24)SCC(CO)(CO)C3)C[C@@H]1C [Example 1437, 8-((3S,5R)-4-acryloyl-3,5-dimethylpiperazin-1-yl)-11-(5-chloro-2,4-difluorophenyl)-3,3-bis(hydroxymethyl)-10-(trifluoromethyl)-3,4-dihydro-2H,6H-[1,4]thiazepino[2,3,4-ij]quinazolin-6-one]	87
C=CC(=O)N1[C@H](C)CN(c2nc(=O)n3c4c(c(-c5ccc(F)cc5F)c(C(F)(F)F)cc24)SCC(CO)(CO)C3)C[C@@H]1C [Example 1442, 8-((3S,5R)-4-acryloyl-3,5-dimethylpiperazin-1-yl)-11-(2,4-difluorophenyl)-3,3-bis(hydroxymethyl)-10-(trifluoromethyl)-3,4-dihydro-2H,6H-[1,4]thiazepino[2,3,4-ij]quinazolin-6-one]	93
C=CC(=O)N1[C@H](C)CN(c2nc(=O)n3c4c(c(-c5cc(Br)c(F)cc5F)c(C(F)(F)F)cc24)SC[C@@H]3COC)C[C@@H]1C [Example 1443, (3S)-7-((3S,5R)-4-acryloyl-3,5-dimethylpiperazin-1-yl)-10-(5-bromo-2,4-difluorophenyl)-3-(methoxymethyl)-9-(trifluoromethyl)-2,3-dihydro-5H-[1,4]thiazino[2,3,4-ij]quinazolin-5-one]	85
C=CC(=O)N1[C@H](C)CN(c2nc(=O)n3c4c(c(-c5cc(O)c(F)cc5F)c(C(F)(F)F)cc24)SC[C@@H]3COC)C[C@@H]1C [Example 1444, (3S)-7-((3S,5R)-4-acryloyl-3,5-dimethylpiperazin-1-yl)-10-(2,4-difluoro-5-hydroxyphenyl)-3-(methoxymethyl)-9-(trifluoromethyl)-2,3-dihydro-5H-[1,4]thiazino[2,3,4-ij]quinazolin-5-one]	90
C=CC(=O)N1[C@H](C)CN(c2nc(=O)n3c4c(c(-c5nc(N)ccc5I)c(C(F)(F)F)cc24)SC[C@@H]3COC)C[C@@H]1C [Example 1449, (3S)-7-((3S,5R)-4-acryloyl-3,5-dimethylpiperazin-1-yl)-10-(6-amino-3-iodopyridin-2-yl)-3-(methoxymethyl)-9-(trifluoromethyl)-2,3-dihydro-5H-[1,4]thiazino[2,3,4-ij]quinazolin-5-one]	94
C=CC(=O)N1[C@H](C)CN(c2nc(=O)n3c4c(c(-c5ccc(F)cc5)c(C(F)(F)F)cc24)SC[C@@H](N2CCCC2=O)C3)C[C@@H]1C [Example 1450, (S)-8-((3S,5R)-4-acryloyl-3,5-dimethylpiperazin-1-yl)-11-(4-fluorophenyl)-3-(2-oxopyrrolidin-1-yl)-10-(trifluoromethyl)-3,4-dihydro-2H,6H-[1,4]thiazepino[2,3,4-ij]quinazolin-6-one]	96
